{"source": "patent US20090318446A1", "about": "“4-(1H-Indol-3-yl)-Pyrimidin-2-Ylamine Derivatives and Their Use in Therapy” (Cyclacel Limited, priority 2005, published 2009)", "assay_type_in_all_cases": "biochemical", "key": {"CDK2/cyclin E": {"target": "CDK2/cyclin E (Homo sapiens, UniProt P24941)", "test": "Kinase assay CDK2/cyclin E", "protocol": "The compounds from the examples above were investigated for their ability to inhibit the enzymatic activity of various protein kinases. This was achieved by measurement of incorporation of radioactive phosphate from ATP into appropriate polypeptide substrates. Recombinant protein kinases and kinase complexes were produced or obtained commercially. Assays were performed using 96-well plates and appropriate assay buffers (typically 25 mM β-glycerophosphate, 20 mM MOPS, 5 mM EGTA, 1 mM DTT, 1 mM […], pH 7.4), into which were added 2-4 μg of active enzyme with appropriate substrates. The reactions were initiated by addition of Mg/ATP mix (15 mM MgCl2+100 μM ATP with 30-50 kBq per well of [γ-^32P]-ATP) and mixtures incubated as required at 30° C. Reactions were stopped on ice, followed by filtration through p81 filterplates or GF/C filterplates (Whatman Polyfiltronics, Kent, UK). After washing 3 times with 75 mM aq orthophosphoric acid, plates were dried, scintillant added and incorporated radioactivity measured in a scintillation counter (TopCount, Packard Instruments, Pangbourne, Berks, UK). Compounds for kinase assay were made up as 10 mM stocks in DMSO and diluted into 10% DMSO in assay buffer. Data was analysed using curve-fitting software (GraphPad Prism version 3.00 for Windows, GraphPad Software, San Diego Calif. USA) to determine IC50 values (concentration of test compound which inhibits kinase activity by 50%)."}, "CDK9/cyclin T1": {"target": "CDK9/cyclin T1 (Homo sapiens, UniProt P50750)", "sequence (P50750 whole entry)": "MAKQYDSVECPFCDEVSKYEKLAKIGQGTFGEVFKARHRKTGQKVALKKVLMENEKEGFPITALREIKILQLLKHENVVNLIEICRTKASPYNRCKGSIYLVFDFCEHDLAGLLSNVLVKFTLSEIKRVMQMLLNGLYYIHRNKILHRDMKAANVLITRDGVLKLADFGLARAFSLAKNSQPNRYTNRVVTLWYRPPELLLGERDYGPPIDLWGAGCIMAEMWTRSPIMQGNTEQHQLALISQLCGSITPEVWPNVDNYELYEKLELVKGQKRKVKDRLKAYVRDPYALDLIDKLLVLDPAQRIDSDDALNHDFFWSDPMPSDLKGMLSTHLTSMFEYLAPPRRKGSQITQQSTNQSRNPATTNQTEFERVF", "sequence (O60563 whole entry partner)": "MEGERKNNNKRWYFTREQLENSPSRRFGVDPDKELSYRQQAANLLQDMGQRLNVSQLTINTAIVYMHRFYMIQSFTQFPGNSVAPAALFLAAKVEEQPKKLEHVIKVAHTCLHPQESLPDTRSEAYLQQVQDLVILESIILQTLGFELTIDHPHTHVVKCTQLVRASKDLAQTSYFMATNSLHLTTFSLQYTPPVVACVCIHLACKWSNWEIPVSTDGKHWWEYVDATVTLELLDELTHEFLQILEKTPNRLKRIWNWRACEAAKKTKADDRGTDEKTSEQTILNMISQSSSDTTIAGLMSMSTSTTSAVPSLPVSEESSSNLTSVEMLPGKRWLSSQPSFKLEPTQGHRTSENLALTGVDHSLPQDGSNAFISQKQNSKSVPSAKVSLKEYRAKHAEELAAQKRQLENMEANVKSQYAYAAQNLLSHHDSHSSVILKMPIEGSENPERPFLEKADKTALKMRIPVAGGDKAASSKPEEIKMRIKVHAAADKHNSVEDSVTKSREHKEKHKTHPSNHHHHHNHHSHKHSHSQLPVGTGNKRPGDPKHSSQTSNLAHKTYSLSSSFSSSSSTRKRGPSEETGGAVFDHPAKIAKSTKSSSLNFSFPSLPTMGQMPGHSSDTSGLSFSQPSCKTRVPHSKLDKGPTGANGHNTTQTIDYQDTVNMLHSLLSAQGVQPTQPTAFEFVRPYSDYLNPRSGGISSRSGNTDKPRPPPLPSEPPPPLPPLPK", "test": "CDK 9 assay", "protocol": "CTD peptide substrate (biotinyl-Ahx-(Tyr-Ser-Pro-Thr-Ser-Pro-Ser)4-NH2; 1-2 mg/mL) and recombinant human CDK7/cyclin H, CDK9/cyclin TI, or CDK9/cyclin K (0.5-2 μg) were incubated for 45 min at 30° C. in the presence of varying amounts of test compound in 20 mM MOPS pH 7.2, 25 mM β-glycerophosphate, 5 mM EGTA, 1 mM DTT, 1 mM sodium vanadate, 15 mM MgCl2, and 100 μM ATP (containing a trace amount of ^32PγATP) in a total volume of 25 μL in a 96-well microtiter plate. The reaction was stopped by placing the plate on ice for 2 min. Avidin (50 μg) was added to each well, and the plate was incubated at room temp for 30 min. The samples were transferred to a 96-well P81 filter plate, and washed (4×200 μL per well) with 75 mM phosphoric acid. Microscint 40 scintillation liquid (50 μL) was added to each well, and the amount of ^32P incorporation for each sample was measured using a Packard Topcount microplate scintillation counter."}, "Flt-3": {"target": "T1, Flt-3 (Homo sapiens, UniProt P36888)", "T1 construct": "purchased Upstate, Dundee, UK", "T1 sequence (P36888 564-993 limits assumed)": "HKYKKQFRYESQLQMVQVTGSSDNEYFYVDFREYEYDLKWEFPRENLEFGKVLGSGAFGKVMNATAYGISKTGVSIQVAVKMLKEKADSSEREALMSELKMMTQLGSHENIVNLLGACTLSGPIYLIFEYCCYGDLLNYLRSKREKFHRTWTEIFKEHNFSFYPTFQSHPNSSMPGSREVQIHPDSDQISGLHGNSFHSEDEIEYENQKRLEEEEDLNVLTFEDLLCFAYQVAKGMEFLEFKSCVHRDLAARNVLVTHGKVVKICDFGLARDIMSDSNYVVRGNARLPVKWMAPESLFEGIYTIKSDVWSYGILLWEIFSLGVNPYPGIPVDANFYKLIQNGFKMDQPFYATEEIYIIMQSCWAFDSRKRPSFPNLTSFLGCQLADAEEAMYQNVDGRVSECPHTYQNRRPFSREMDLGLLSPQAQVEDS", "test": "Flt3 kinase assay", "protocol": "This was achieved by measurement of incorporation of radioactive phosphate from ATP into myelin basic protein (MBP) substrate, upon phosphorylation by commercially obtained Flt-3 Upstate, Dundee, UK). Assays were performed using 96-well plates and appropriate assay buffers (20 mM Tris, 25 mM β-glycerophosphate, 5 mM EGTA, 1 mM DTT, 1 mM sodium vanadate, pH 7.5), into which were added 5 ng of active enzyme with 0.4 mg/ml substrate (MBP). The reactions were initiated by addition of MgATP mix (15 mM MgCl2+100 μM ATP with 15-25 kBq per well of [γ-^32P]-ATP) and mixtures incubated for 30 min at 30° C. Reactions were stopped by addition of an equal volume of 75 mM aq orthophosphoric acid, followed by filtration through p81 filterplates (Whatman Polyfiltronics, Kent, UK). After washing 4 times with 75 mM aq orthophosphoric acid, plates were dried, scintillant added and incorporated radioactivity measured in a scintillation counter (TopCount, Packard Instruments, Pangbourne, Berks, UK). Compounds for kinase assay were made up as 10 mM stocks in DMSO and diluted into 10% DMSO in assay buffer. Data was analysed using curve-fitting software (XLfit version 4.0.2, IDBS, Guildford, Surrey, UK) to determine IC50 values (concentration of test compound which inhibits kinase activity by 50%)."}, "[1]": {"conditions": "Table 2, read-out: Kinase inhibition IC50 CDK2E"}, "[2]": {"conditions": "Table 3, read-out: Kinase inhibition CDK2E"}, "[3]": {"conditions": "Table 2, read-out: Kinase inhibition IC50 CDK9T1"}, "[4]": {"conditions": "Table 3, read-out: Kinase inhibition CDK9T1"}, "[5]": {"conditions": "Table 2, read-out: Kinase inhibition IC50 FLT3"}, "[6]": {"conditions": "Table 3, read-out: Kinase inhibition Flt3"}}, "note": "Where two headings read alike, the source gives them in different places.", "data": [{"smiles": "O=[N+]([O-])c1cccc(Nc2nccc(-c3c[nH]c4ccccc34)n2)c1", "note": "[Compound 2, [4-(1H-Indol-3-yl)-pyrimidin-2-yl]-(3-nitro-phenyl)-amine]", "values": [{"measurement": "IC50", "setting": "CDK2/cyclin E; [1]", "value": 2900, "unit": "nM"}, {"measurement": "IC50", "setting": "CDK2/cyclin E; [2]", "value": 2950, "unit": "nM"}, {"measurement": "IC50", "setting": "CDK9/cyclin T1; [3]", "value": 6100, "unit": "nM"}, {"measurement": "IC50", "setting": "CDK9/cyclin T1; [4]", "value": 6080, "unit": "nM"}, {"measurement": "IC50", "setting": "Flt-3; [5]", "value": 130, "unit": "nM"}, {"measurement": "IC50", "setting": "Flt-3; [6]", "value": 133, "unit": "nM"}]}, {"smiles": "Fc1ccc(Nc2nccc(-c3c[nH]c4ccccc34)n2)cc1", "note": "[Compound 3, (4-Fluoro-phenyl)-[4-(1H-indol-3-yl)-pyrimidin-2-yl]-amine]", "values": [{"measurement": "IC50", "setting": "CDK2/cyclin E; [1]", "value": 1200, "unit": "nM"}, {"measurement": "IC50", "setting": "CDK2/cyclin E; [2]", "value": 1170, "unit": "nM"}, {"measurement": "IC50", "setting": "CDK9/cyclin T1; [3]", "value": "> 100000", "unit": "nM"}, {"measurement": "IC50", "setting": "Flt-3; [5]", "value": 270, "unit": "nM"}, {"measurement": "IC50", "setting": "Flt-3; [6]", "value": 274, "unit": "nM"}]}, {"smiles": "COc1ccc(Nc2nccc(-c3c[nH]c4ccccc34)n2)cn1", "note": "[Compound 4, [4-(1H-Indol-3-yl)-pyrimidin-2-yl]-(6-methoxy-pyridin-3-yl)-amine]", "values": [{"measurement": "IC50", "setting": "CDK2/cyclin E; [1]", "value": 1300, "unit": "nM"}, {"measurement": "IC50", "setting": "CDK2/cyclin E; [2]", "value": 1250, "unit": "nM"}, {"measurement": "IC50", "setting": "CDK9/cyclin T1; [3]", "value": 2800, "unit": "nM"}, {"measurement": "IC50", "setting": "CDK9/cyclin T1; [4]", "value": 2820, "unit": "nM"}, {"measurement": "IC50", "setting": "Flt-3; [5]", "value": 150, "unit": "nM"}, {"measurement": "IC50", "setting": "Flt-3; [6]", "value": 148, "unit": "nM"}]}, {"smiles": "c1ccc2c(-c3ccnc(Nc4ccc(N5CCOCC5)cc4)n3)c[nH]c2c1", "note": "[Compound 5, [4-(1H-Indol-3-yl)-pyrimidin-2-yl]-(4-morpholin-4-yl-phenyl)-amine]", "values": [{"measurement": "IC50", "setting": "CDK2/cyclin E; [1]", "value": "> 10000", "unit": "nM"}, {"measurement": "IC50", "setting": "CDK9/cyclin T1; [3]", "value": "> 10000", "unit": "nM"}, {"measurement": "IC50", "setting": "Flt-3; [5]", "value": 52, "unit": "nM"}, {"measurement": "IC50", "setting": "Flt-3; [6]", "value": 51.6, "unit": "nM"}]}, {"smiles": "CC(=O)N1CCN(c2ccc(Nc3nccc(-c4c[nH]c5ccccc45)n3)cc2)CC1", "note": "[Compound 6, 4-(1H-indol-3-yl)-N-(4-acetylpiperazin-1-ylphenyl)pyrimidin-2-amine]", "values": [{"measurement": "IC50", "setting": "CDK2/cyclin E; [2]", "value": 4500, "unit": "nM"}, {"measurement": "IC50", "setting": "CDK9/cyclin T1; [4]", "value": 2080, "unit": "nM"}, {"measurement": "IC50", "setting": "Flt-3; [6]", "value": 13.3, "unit": "nM"}]}, {"smiles": "c1ccc2c(-c3ccnc(Nc4ccc(N5CCNCC5)cc4)n3)c[nH]c2c1", "note": "[Compound 7, 4-(1H-indol-3-yl)-N-(4-piperazin-1-ylphenyl)pyrimidin-2-amine]", "values": [{"measurement": "IC50", "setting": "CDK2/cyclin E; [2]", "value": 1930, "unit": "nM"}, {"measurement": "IC50", "setting": "CDK9/cyclin T1; [4]", "value": 520, "unit": "nM"}, {"measurement": "IC50", "setting": "Flt-3; [6]", "value": 12.7, "unit": "nM"}]}, {"smiles": "CC1CN(c2ccc(Nc3nccc(-c4c[nH]c5ccccc45)n3)cc2)CC(C)O1", "note": "(stereo not drawn) [Compound 9]", "values": [{"measurement": "IC50", "setting": "CDK2/cyclin E; [2]", "value": 4910, "unit": "nM"}, {"measurement": "IC50", "setting": "CDK9/cyclin T1; [4]", "value": 3030, "unit": "nM"}, {"measurement": "IC50", "setting": "Flt-3; [6]", "value": 29.8, "unit": "nM"}]}, {"smiles": "CN(C)c1ccc(Nc2nccc(-c3c[nH]c4ccccc34)n2)cc1", "note": "[Compound 10, N′-[4-(1H-indol-3-yl)pyrimidin-2-yl]-N,N-dimethylbenzene-1,4-diamine]", "values": [{"measurement": "IC50", "setting": "CDK2/cyclin E; [2]", "value": 2350, "unit": "nM"}, {"measurement": "IC50", "setting": "CDK9/cyclin T1; [4]", "value": 1590, "unit": "nM"}, {"measurement": "IC50", "setting": "Flt-3; [6]", "value": 84.9, "unit": "nM"}]}, {"smiles": "COc1cc(Nc2nccc(-c3c[nH]c4ccccc34)n2)cc(OC)c1OC", "note": "[Compound 12, 4-(1H-indol-3-yl)-N-(3,4,5-trimethoxyphenyl)pyrimidin-2-amine]", "values": [{"measurement": "IC50", "setting": "CDK2/cyclin E; [2]", "value": 1820, "unit": "nM"}, {"measurement": "IC50", "setting": "CDK9/cyclin T1; [4]", "value": 1260, "unit": "nM"}, {"measurement": "IC50", "setting": "Flt-3; [6]", "value": 1.3, "unit": "nM"}]}, {"smiles": "COc1cc(Nc2nccc(-c3c[nH]c4ccccc34)n2)ccc1N1CCOCC1", "note": "[Compound 13, 4-(1H-indol-3-yl)-N-(3-methoxyl-4-morpholin-4-ylphenyl)pyrimidin-2-amine]", "values": [{"measurement": "IC50", "setting": "CDK2/cyclin E; [2]", "value": 7600, "unit": "nM"}, {"measurement": "IC50", "setting": "CDK9/cyclin T1; [4]", "value": 4240, "unit": "nM"}, {"measurement": "IC50", "setting": "Flt-3; [6]", "value": 2.4, "unit": "nM"}]}, {"smiles": "CC(=O)N1CCN(c2ccc(Nc3nccc(-c4c(C)[nH]c5ccccc45)n3)cc2)CC1", "note": "[Compound 22]", "values": [{"measurement": "IC50", "setting": "CDK2/cyclin E; [2]", "value": 5150, "unit": "nM"}, {"measurement": "IC50", "setting": "CDK9/cyclin T1; [4]", "value": 4440, "unit": "nM"}, {"measurement": "IC50", "setting": "Flt-3; [6]", "value": 11, "unit": "nM"}]}, {"smiles": "CC(=O)N1CCN(c2ccc(Nc3nccc(-c4c[nH]c5c(C)cccc45)n3)cc2)CC1", "note": "[Compound 23]", "values": [{"measurement": "IC50", "setting": "CDK2/cyclin E; [2]", "value": 2430, "unit": "nM"}, {"measurement": "IC50", "setting": "CDK9/cyclin T1; [4]", "value": 1540, "unit": "nM"}, {"measurement": "IC50", "setting": "Flt-3; [6]", "value": 33.2, "unit": "nM"}]}]}
